Assay results from PubChem BioAssay AID1259411 (Chemical Carcinogenesis Research Information System (CCRIS), 2018).
Active and inactive are the calls of the source. How the calls were made is not given here.

Test system: rodent carcinogenicity bioassays, tumor incidence
Assay: CCRIS carcinogenicity studies
Outline: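 NCI-built, expert-reviewed records of carcinogenicity and related test outcomes (mutagenicity, tumor promotion/inhibition) compiled from published and report sources, historical span 1985-2011, not updated.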

CC[C@H]1NC(=O)[C@@H]2[C@H](Cl)[C@H](Cl)CN2C(=O)[C@@H](CO)NC(=O)C[C@H](c2ccccc2)NC(=O)[C@H](CO)NC1=O
carcinogen call (Species: MOUSE, Strain/Sex: DDNI/MALE, Route: ORAL, Dose: 0, 40, 60 UG IN DIET, 1/D FOR LIFE, Dose: 0, 40, 60 UG IN DIET, 1/D FOR LIFE, Tumor Site: Type of Lesion: HEMATOPOIETIC SYSTEM: RETICULOENDOTHELIOMA, LIVER: CARCINOMA, HEPATOCELLULAR ADENOMA): active; positive

CCCCN(CCCC(=O)O)N=O
carcinogen call (Species: MOUSE, Strain/Sex: B6D2F1/FEMALE, Route: ORAL, Dose: 0, 565 MG/L IN DRINKING WATER FOR 13 WK (STUDY DURATION: 28 WK), Tumor Site: Type of Lesion: URINARY BLADDER: TUMOR): active; positive
carcinogen call (Species: MOUSE, Strain/Sex: B6D2F1/MALE, Route: ORAL, Dose: 0, 565 MG/L IN DRINKING WATER FOR 13 WK (STUDY DURATION: 28 WK), Tumor Site: Type of Lesion: URINARY BLADDER: TUMOR): active; positive

CC(C)c1ccccc1
carcinogen call (Species: Mouse, Strain/Sex: B5C3F1/ Female (50/Group), Route: Inhalation, Dose: 0, 125, 250, 500 ppm for 6 hr plus 12 min per d, 5 d/wk, 105 wk (Study duration: 105 wk), Dose: 0, 125, 250, 500 ppm for 6 hr plus 12 min per d, 5 d/wk, 105 wk (Study duration: 105 wk), Tumor Site: Type of Lesion: Lung: Alveolar/bronchiolar adenoma (1/50; 26/50; 36/50; 38/50), Alveolar/bronchiolar carcinoma (3/50, 16/50, 20/50, 34/, Tumor Site: Type of Lesion: Lung: Alveolar/bronchiolar adenoma (1/50; 26/50; 36/50; 38/50), Alveolar/bronchiolar carcinoma (3/50, 16/50, 20/50, 34/): active; positive. authors describe as clear evidence of carcinogenicity based on increas
carcinogen call (Species: Mouse, Strain/Sex: B5C3F1/ Male (50/Group), Route: Inhalation, Dose: 0, 250, 500, 1,000 ppm for 6 hr plus 12 min per d, 5 d/wk, 105 wk (Study duration: 105 wk), Dose: 0, 250, 500, 1,000 ppm for 6 hr plus 12 min per d, 5 d/wk, 105 wk (Study duration: 105 wk), Tumor Site: Type of Lesion: Lung: Alveolar/bronchiolar adenoma (13/50; 31/50; 29/50), Alveolar/bronchiolar carcinoma (9/50, 19/50, 32/50, 33/, Tumor Site: Type of Lesion: Lung: Alveolar/bronchiolar adenoma (13/50; 31/50; 29/50), Alveolar/bronchiolar carcinoma (9/50, 19/50, 32/50, 33/): active; positive. authors describe as clear evidence of carcinogenicity based on increas
carcinogen call (Species: Rat, Strain/Sex: F344/N / Female (50/Group), Route: Inhalation, Dose: 0, 250, 500, 1,000 ppm for 6 hr plus 12 min per d, 5 d/wk, 105 wk (Study duration: 105 wk), Dose: 0, 250, 500, 1,000 ppm for 6 hr plus 12 min per d, 5 d/wk, 105 wk (Study duration: 105 wk), Tumor Site: Type of Lesion: Nose (respiratory epithelium): Adenoma (0/50; 5/48; 4/50; 3/50)): inactive; negative. authors describe as some evidence of carcinogenicity.
carcinogen call (Species: Rat, Strain/Sex: F344/N / Male (50/Group), Route: Inhalation, Dose: 0, 250, 500, 1,000 ppm for 6 hr plus 12 min per d, 5 d/wk, 105 wk (Study duration: 105 wk), Dose: 0, 250, 500, 1,000 ppm for 6 hr plus 12 min per d, 5 d/wk, 105 wk (Study duration: 105 wk), Tumor Site: Type of Lesion: Nose (respiratory epithelium): Adenoma (0/50, 7/50, 18/49, 10/50, Renal tubule: Adenoma (1/50; 4/50; 5/50; 4/50), Renal, Tumor Site: Type of Lesion: Nose (respiratory epithelium): Adenoma (0/50, 7/50, 18/49, 10/50, Renal tubule: Adenoma (1/50; 4/50; 5/50; 4/50), Renal): active; positive. authors describe as clear evidence of carcinogenicity except that test

CC(=O)c1ccc(S(=O)(=O)NC(=O)NC2CCCCC2)cc1
carcinogen call (Species: MOUSE, Strain/Sex: B6C3F1/FEMALE, Route: ORAL, Dose: 0, 6359, 12718 PPM IN DIET, TWA, Dose: 0, 6359, 12718 PPM IN DIET, TWA): inactive; negative
carcinogen call (Species: MOUSE, Strain/Sex: B6C3F1/MALE, Route: ORAL, Dose: 0, 6359, 12718 PPM IN DIET, TWA, Dose: 0, 6359, 12718 PPM IN DIET, TWA): inactive; negative
carcinogen call (Species: RAT, Strain/Sex: F344/FEMALE, Route: ORAL, Dose: 0, 10000, 20000 PPM IN DIET, Dose: 0, 10000, 20000 PPM IN DIET): inactive; negative
carcinogen call (Species: RAT, Strain/Sex: F344/MALE, Route: ORAL, Dose: 0, 10000, 20000 PPM IN DIET, Dose: 0, 10000, 20000 PPM IN DIET): inactive; negative

OCC(O)CCl (stereo unspecified)
carcinogen call (Species: Rat, Strain/Sex: Sprague-Dawley/Female, Route: Oral, Dose: 0, 25, 100, 400 ppm in drinking water for 2 yr (Study duration: 104 wk), Dose: 0, 25, 100, 400 ppm in drinking water for 2 yr (Study duration: 104 wk), Tumor Site: Type of Lesion: Kidney: Renal tubule adenoma or carcinoma): active; positive
carcinogen call (Species: Rat, Strain/Sex: Sprague-Dawley/Male, Route: Oral, Dose: 0, 25, 100, 400 ppm in drinking water for 2 yr (Study duration: 100 wk), Dose: 0, 25, 100, 400 ppm in drinking water for 2 yr (Study duration: 100 wk), Tumor Site: Type of Lesion: Kidney: Renal tubule adenoma or carcinoma, Testes: Leydig cell tumor): active; positive

S=C=NCCc1ccccc1
carcinogen call (Species: RAT, Strain/Sex: F344/MALE, Route: DIET (ORAL), Dose: 0.1% FOR 12 WK (STUDY DURATION: 48 WK)): inactive; negative (bladder hyperplasias observed)
carcinogen call (Species: RAT, Strain/Sex: F344/MALE, Route: DIET (ORAL), Dose: 0.1% FOR 24 WK (STUDY DURATION: 48 WK)): inactive; negative (bladder hyperplasias observed)
carcinogen call (Species: RAT, Strain/Sex: F344/MALE, Route: DIET (ORAL), Dose: 0.1% FOR 48 WK (STUDY DURATION: 48 WK)): inactive; negative (bladder hyperplasias and dysplasias observed)
carcinogen call (Species: RAT, Strain/Sex: F344/MALE, Route: ORAL, Dose: 0.1% IN DIET FOR 32 WK, THEN SWITCHED TO BASAL DIET FOR 16 WK (STUDY DURATION: 48 WK), Tumor Site: Type of Lesion: URINARY BLADDER: CARCINOMA): active; positive
carcinogen call (Species: RAT, Strain/Sex: F344/MALE, Route: ORAL, Dose: 0.1% IN DIET FOR 48 WK (STUDY DURATION: 48 WK), Tumor Site: Type of Lesion: URINARY BLADDER: CARCINOMA): active; positive

OC1c2cccc3c2[C@]2(O[C@H]2C1O)c1ccccc1-3 (stereo partly specified)
carcinogen call (Species: MOUSE, Strain/Sex: ICR/FEMALE, Route: INTRAPERITONEAL, Dose: 0, 500 NMOL (TOTAL DOSE) ADMINISTERED IN DOSES OF 1/7, 2/7, AND 4/7 ON DAYS 1, 7, AND 15 OF LIFE, RESPECTIVELY (STUDY DU, Tumor Site: Type of Lesion: LUNG: TUMOR): active; positive
carcinogen call (Species: MOUSE, Strain/Sex: ICR/MALE, Route: INTRAPERITONEAL, Dose: 0, 500 NMOL (TOTAL DOSE) ADMINISTERED IN DOSES OF 1/7, 2/7, AND 4/7 ON DAYS 1, 7 AND 15 OF LIFE , RESPECTIVELY (STUDY DU, Tumor Site: Type of Lesion: LUNG: TUMOR, LIVER: TUMOR): active; positive
carcinogen call (Species: RAT, Strain/Sex: STRAIN-CD/FEMALE, Route: INJECTION, Dose: 0, 2, 10 UMOL IN 0.1 ML DMSO INJECTED INTO MAMMARY TISSUE UNDER EACH OF THE 3 LEFT THORACIC NIPPLES FOLLOWED BY SIMILAR, Dose: 0, 2, 10 UMOL IN 0.1 ML DMSO INJECTED INTO MAMMARY TISSUE UNDER EACH OF THE 3 LEFT THORACIC NIPPLES FOLLOWED BY SIMILAR, Tumor Site: Type of Lesion: MAMMARY GLAND: TUMOR): active; positive
